Here are results for one molecule from patent US20050208496A1, “Methods of testing for bronchial asthma or chronic obstructive pulmonary disease” (Genox Research, Inc., priority 2002, published 2005).

The test system of the assay is Balb/c mice. Briefly: OVA antigen-exposed bronchial hypersensitivity mouse model, respiratory constriction caused by acetylcholine. The assay is classed as in vivo. The settings on record: 5 mg/kg orally.

Method: 50 μg OVA and 1 mg aluminum hydroxide (an adjuvant) were injected into the peritoneal cavity of Balb/c mice (male, seven-week old), and after 10 days the mice was sensitized with OVA under the same conditions. Then, after 10 days, 1% OVA was given by inhalation using the Ultra-nebulizer model UN701 (Azwell (Co., Ltd.)) for 30 minutes every four days three times in total. Enhanced bronchial hypersensitivity was monitored by detecting the respiratory constriction caused by acetylcholine (6.25-2000 μg/kg) using an artificial respirator (model 131, New England Medical Instruments Inc.) 24 hours after the final antigen inhalation (Nagai H. et al, Int Arch Allergy Immunol; 108: 189-195, 1995). Bronchial hypersensitivity can be induced by this treatment.

For `C[C@]12C=CC(=O)C=C1CC[C@@H]1[C@@H]2[C@@H](O)C[C@@]2(C)[C@H]1CC[C@]2(O)C(=O)CO` [Prednisolone], the “development of bronchial hypersensitivity” value is on record as “suppressed”.
